Data taken from patent publication US20210238176A1, “PESTICIDALLY-ACTIVE BICYCLIC HETEROAROMATIC COMPOUNDS” (SYNGENTA CROP PROTECTION AG, priority 2018, published 2021).

Experiments:
Type in all cases: in vivo
[1] = test system: Myzus persicae (Green Peach Aphid); assay: Myzus persicae (green peach aphid) feeding/contact activity, sunflower leaf discs; conditions: foliar, 144 h, application rate 200 ppm, aphid population of mixed ages, 6 days after infestation
Experimental: Myzus persicae (Green Peach Aphid): Feeding/Contact Activity
Sunflower leaf discs were placed onto agar in a 24-well microtiter plate and sprayed with aqueous test solutions prepared from 10,000 ppm DMSO stock solutions. After drying, the leaf discs were infested with an aphid population of mixed ages. The samples were assessed for mortality 6 days after infestation.

[2] = test system: Myzus persicae (Green Peach Aphid); assay: Myzus persicae intrinsic activity, sucrose solution under Parafilm; conditions: 120 h, test rate 12 ppm, 5 days after infestation
Source text: Myzus persicae (Green Peach Aphid). Intrinsic Activity
Test compounds prepared from 10,000 ppm DMSO stock solutions were applied by pipette into 24-well microtiter plates and mixed with sucrose solution. The plates were closed with a stretched Parafilm. A plastic stencil with 24 holes was placed onto the plate and infested pea seedlings were placed directly on the Parafilm. The infested plate was closed with a gel blotting paper and another plastic stencil and then turned upside down. The samples were assessed for mortality 5 days after infestation.

[3] = test system: Bemisia tabaci (Cotton White Fly); assay: Bemisia tabaci (cotton white fly) feeding/contact activity, cotton leaf discs; conditions: foliar, 144 h, application rate 200 ppm, adult white flies, 6 days after incubation
Experimental: Bemisia tabaci (Cotton White Fly): Feeding/Contact Activity
Cotton leaf discs were placed on agar in 24-well microtiter plates and sprayed with aqueous test solutions prepared from 10,000 ppm DMSO stock solutions. After drying the leaf discs were infested with adult white flies. The samples were checked for mortality 6 days after incubation.

[4] = test system: Myzus persicae (Green Peach Aphid); assay: Myzus persicae systemic activity, pea seedling roots in test solution; conditions: 144 h, test rate 24 ppm, systemic via pea seedling roots, 6 days
Experimental: Myzus persicae (Green Peach Aphid). Systemic Activity
Roots of pea seedlings infested with an aphid population of mixed ages were placed directly into aqueous test solutions prepared from 10,000 ppm DMSO stock solutions. The samples were assessed for mortality 6 days after placing seedlings into test solutions.

| SMILES | mortality at 200 ppm [1] | mortality at 12 ppm [2] | mortality at 200 ppm [3] | mortality at 24 ppm [4] |
| --- | --- | --- | --- | --- |
| O=c1nc2n(Cc3ccc(Cl)nc3)cccc-2n1-c1ccc(Cl)cc1 [Compound A9, 1-(4-chlorophenyl)-4-[(6-chloro-3-pyridyl)methyl]imidazo[4,5-b]pyridin-2-one] | ≥ 80% | ≥ 80% |  |  |
| N#Cc1ccc(-n2c3cccn(Cc4ccc(Cl)nc4)c-3nc2=O)cc1 [Compound A10, 4-[4-[(6-chloro-3-pyridyl)methyl]-2-oxo-imidazo[4,5-b]pyridin-1-yl]benzonitrile] | ≥ 80% | ≥ 80% |  |  |
| N#Cc1cccc(-n2c3cccn(Cc4ccc(Cl)nc4)c-3nc2=O)c1 [Compound A11, 3-[4-[(6-chloro-3-pyridyl)methyl]-2-oxo-imidazo[4,5-b]pyridin-1-yl]benzonitrile] | ≥ 80% | ≥ 80% |  |  |
| O=c1nc2n(Cc3ccc(Cl)nc3)cccc-2n1-c1ccc(C(F)(F)F)cc1 [Compound A13, 4-[(6-chloro-3-pyridyl)methyl]-1-[4-(trifluoromethyl)phenyl]imidazo[4,5-b]pyridin-2-one] | ≥ 80% | ≥ 80% | ≥ 80% |  |
| O=c1nc2n(Cc3ccc(Cl)nc3)cccc-2n1-c1ccnc(C(F)(F)F)c1 [Compound A14, 4-[(6-chloro-3-pyridyl)methyl]-1-[2-(trifluoromethyl)-4-pyridyl]imidazo[4,5-b]pyridin-2-one] | ≥ 80% | ≥ 80% |  |  |
| O=c1nc2n(Cc3ccc(Cl)nc3)cccc-2n1-c1cncnc1 [Compound A16, 4-[(6-chloro-3-pyridyl)methyl]-1-pyrimidin-5-yl-imidazo[4,5-b]pyridin-2-one] |  | ≥ 80% |  | ≥ 80% |
| O=c1nc2n(Cc3ccc(Cl)nc3)cccc-2n1-c1cccc(C(F)(F)F)c1 [Compound A21, 4-[(6-chloro-3-pyridyl)methyl]-1-[3-(trifluoromethyl)phenyl]imidazo[4,5-b]pyridin-2-one] | ≥ 80% | ≥ 80% |  |  |
| O=c1nc2n(Cc3ccc(Cl)nc3)cccc-2n1-c1cncc(Cl)c1 [Compound A22, 1-(5-chloro-3-pyridyl)-4-[(6-chloro-3-pyridyl)methyl]imidazo[4,5-b]pyridin-2-one] |  | ≥ 80% |  | ≥ 80% |
| O=c1nc2n(Cc3ccc(Cl)nc3)cccc-2n1-c1ccc(C(F)(F)F)nc1 [Compound A24, 4-[(6-chloro-3-pyridyl)methyl]-1-[6-(trifluoromethyl)-3-pyridyl]imidazo[4,5-b]pyridin-2-one] |  | ≥ 80% |  | ≥ 80% |
| O=c1nc2n(Cc3ccc(Cl)nc3)cccc-2n1-c1cncc(C(F)(F)F)c1 [Compound A25, 4-[(6-chloro-3-pyridyl)methyl]-1-[5-(trifluoromethyl)-3-pyridyl]imidazo[4,5-b]pyridin-2-one] | ≥ 80% | ≥ 80% |  | ≥ 80% |
| O=c1nc2n(Cc3ccc(Cl)nc3)cccc-2n1-c1ccccn1 [Compound A27, 4-[(6-chloro-3-pyridyl)methyl]-1-(2-pyridyl)imidazo[4,5-b]pyridin-2-one] |  | ≥ 80% |  | ≥ 80% |
| Cc1cccc(-n2c3cccn(Cc4ccc(Cl)nc4)c-3nc2=O)c1 [Compound A29, 4-[(6-chloro-3-pyridyl)methyl]-1-(m-tolyl)imidazo[4,5-b]pyridin-2-one] | ≥ 80% | ≥ 80% |  |  |
| O=c1nc2n(Cc3ccc(Cl)nc3)cccc-2n1-c1ccc(F)cc1 [Compound A32, 4-[(6-chloro-3-pyridyl)methyl]-1-(4-fluorophenyl)imidazo[4,5-b]pyridin-2-one] | ≥ 80% | ≥ 80% |  | ≥ 80% |
| O=c1nc2n(Cc3cnc(Cl)s3)cccc-2n1-c1ccccc1 [Compound A36, 4-[(2-chlorothiazol-5-yl)methyl]-1-phenyl-imidazo[4,5-b]pyridin-2-one] | ≥ 80% | ≥ 80% |  |  |
| O=c1nc2n(Cc3ccc(Cl)nc3)cccc-2n1-c1ccccc1Cl [Compound A38, 1-(2-chlorophenyl)-4-[(6-chloro-3-pyridyl)methyl]imidazo[4,5-b]pyridin-2-one] | ≥ 80% | ≥ 80% |  |  |
| O=c1nc2n(Cc3ccc(Cl)nc3)cccc-2n1-c1ccc(OC(F)(F)F)cc1 [Compound A39, 4-[(6-chloro-3-pyridyl)methyl]-1-[4-(trifluoromethoxy)phenyl]imidazo[4,5-b]pyridin-2-one] | ≥ 80% | ≥ 80% | ≥ 80% |  |
| N#Cc1ccccc1-n1c2cccn(Cc3ccc(Cl)nc3)c-2nc1=O [Compound A40, 2-[4-[(6-chloro-3-pyridyl)methyl]-2-oxo-imidazo[4,5-b]pyridin-1-yl]benzonitrile] | ≥ 80% | ≥ 80% |  | ≥ 80% |
| O=c1nc2n(Cc3ccc(Cl)nc3)cccc-2n1-c1nccnc1C(F)(F)F [Compound A42, 4-[(6-chloro-3-pyridyl)methyl]-1-[3-(trifluoromethyl)pyrazin-2-yl]imidazo[4,5-b]pyridin-2-one] | ≥ 80% | ≥ 80% |  |  |
| CC(C)n1cc(-n2c3cccn(Cc4ccc(Cl)nc4)c-3nc2=O)cn1 [Compound A62, 4-[(6-chloro-3-pyridyl)methyl]-1-(1-isopropylpyrazol-4-yl)imidazo[4,5-b]pyridin-2-one] | ≥ 80% | ≥ 80% | ≥ 80% |  |
| O=c1nc2n(Cc3ccc(Cl)nc3)cccc-2n1-c1cncs1 [Compound A66, 4-[(6-chloro-3-pyridyl)methyl]-1-thiazol-5-yl-imidazo[4,5-b]pyridin-2-one] | ≥ 80% | ≥ 80% | ≥ 80% |  |
| Cc1ccc(-n2c3cccn(Cc4ccc(Cl)nc4)c-3nc2=O)s1 [Compound A67, 4-[(6-chloro-3-pyridyl)methyl]-1-(5-methyl-2-thienyl)imidazo[4,5-b]pyridin-2-one] | ≥ 80% | ≥ 80% |  |  |
| O=c1nc2n(Cc3ccc(Cl)nc3)cccc-2n1-c1ccoc1 [Compound A70, 4-[(6-chloro-3-pyridyl)methyl]-1-(3-furyl)imidazo[4,5-b]pyridin-2-one] |  | ≥ 80% | ≥ 80% |  |
| O=c1nc2n(Cc3ccc(Cl)nc3)cccc-2n1-c1nnc(C2CC2)o1 [Compound A79, 4-[(6-chloro-3-pyridyl)methyl]-1-(5-cyclopropyl-1,3,4-oxadiazol-2-yl)imidazo[4,5-b]pyridin-2-one] | ≥ 80% | ≥ 80% |  |  |
| O=c1nc2n(Cc3ccc(Cl)nc3)cccc-2n1-c1ccccc1C(F)(F)F [Compound A81, 4-[(6-chloro-3-pyridyl)methyl]-1-[2-(trifluoromethyl)phenyl]imidazo[4,5-b]pyridin-2-one] | ≥ 80% | ≥ 80% |  |  |
| COc1ccccc1-n1c2cccn(Cc3ccc(Cl)nc3)c-2nc1=O [Compound A82, 4-[(6-chloro-3-pyridyl)methyl]-1-(2-methoxyphenyl)imidazo[4,5-b]pyridin-2-one] | ≥ 80% | ≥ 80% |  | ≥ 80% |
| Cn1cc(-n2c3cccn(Cc4ccc(Cl)nc4)c-3nc2=O)c(C(F)F)n1 [Compound A95, 4-[(6-chloro-3-pyridyl)methyl]-1-[3-(difluoromethyl)-1-methyl-pyrazol-4-yl]imidazo[4,5-b]pyridin-2-one] | ≥ 80% | ≥ 80% |  | ≥ 80% |
| Cn1ncc(-n2c3cccn(Cc4ccc(Cl)nc4)c-3nc2=O)c1C(F)F [Compound A97, 4-[(6-chloro-3-pyridyl)methyl]-1-[5-(difluoromethyl)-1-methyl-pyrazol-4-yl]imidazo[4,5-b]pyridin-2-one] | ≥ 80% | ≥ 80% |  | ≥ 80% |
| Cc1nn(C(F)F)cc1-n1c2cccn(Cc3ccc(Cl)nc3)c-2nc1=O [Compound A98, 4-[(6-chloro-3-pyridyl)methyl]-1-[1-(difluoromethyl)-3-methyl-pyrazol-4-yl]imidazo[4,5-b]pyridin-2-one] | ≥ 80% | ≥ 80% |  | ≥ 80% |
| Cc1c(-n2c3cccn(Cc4ccc(Cl)nc4)c-3nc2=O)cnn1C(F)F [Compound A99, 4-[(6-chloro-3-pyridyl)methyl]-1-[1-(difluoromethyl)-5-methyl-pyrazol-4-yl]imidazo[4,5-b]pyridin-2-one] | ≥ 80% | ≥ 80% |  | ≥ 80% |
| CCn1cc(-n2c3cccn(Cc4ccc(Cl)nc4)c-3nc2=O)c(C)n1 [Compound A101, 4-[(6-chloro-3-pyridyl)methyl]-1-(1-ethyl-3-methyl-pyrazol-4-yl)imidazo[4,5-b]pyridin-2-one] | ≥ 80% | ≥ 80% | ≥ 80% |  |
